# Laboratory results from ChEMBL document CHEMBL5050833, “Novel cyclic trex1 inhibitors” (2020).
# Test system: not listed separately
# Assay: Inhibition of mouse TREX1 exonuclease activity using labeled DNA oligonucleotide as substrate incubated for 30 mins and measured after 45 mins by fluorescence assay
row,IC50,Compound
1,in the range around 1000 nM,CC(C)C[C@H](CNC(=O)c1ccc(Cl)cc1)N1CCC(CCc2ccccc2)N2C[C@H](N)C[C@H]2C1=O (stereo not given in full)
2,in the range around 1000 nM,CC(C)C[C@H](C(=O)NCc1ccc(Cl)c(Cl)c1)N1CCC(CCc2ccc(Cl)cc2)N2C[C@H](N)C[C@H]2C1=O (stereo not given in full)
3,< 1000 nM,NC(=O)CC[C@H](C(=O)NCc1ccc(Cl)c(Cl)c1)N1CCC(CCc2ccccc2)N2C[C@H](N)C[C@H]2C1=O (stereo not given in full)
4,in the range around 1000 nM,CCC[C@H](C(=O)NS(=O)(=O)c1ccc(Cl)c(Cl)c1)N1CCC(CCc2ccccc2)N2C[C@H](N)C[C@H]2C1=O (stereo not given in full)
5,in the range around 1000 nM,CC(C)C[C@H](C(=O)NCc1ccc(F)cc1)N1CCC(CCc2ccccc2)N2C[C@H](N)C[C@H]2C1=O (stereo not given in full)
6,in the range around 10000 nM,CC(C)C[C@H](C(=O)NCc1ccc(Cl)c(Cl)c1)N1CCC(CCc2ccccc2)N(CCN)CC1=O (stereo not given in full)
7,in the range around 10000 nM,CC(C)C[C@H](C(=O)NCc1ccc(Cl)c(Cl)c1)N1CCC(C)N2C[C@H](N)C[C@H]2C1=O (stereo not given in full)
8,in the range around 10000 nM,CC(C)C[C@H](C(=O)NCc1ccc(C#N)cc1)N1CCC(CCc2ccccc2)N2C[C@H](N)C[C@H]2C1=O (stereo not given in full)
9,< 1000 nM,CC(C)C[C@H](C(=O)NS(=O)(=O)c1ccc(Cl)c(Cl)c1)N1CCC(CCc2ccccc2)N2C[C@H](N)C[C@H]2C1=O (stereo not given in full)
10,in the range around 10000 nM,CC(=O)N[C@@H]1C[C@H]2C(=O)N([C@H](CC(C)C)C(=O)NCc3ccc(Cl)c(Cl)c3)CCC(CCc3ccccc3)N2C1 (stereo not given in full)
11,< 1000 nM,CC(C)C[C@H](C(=O)NCc1ccc(C(F)(F)F)cc1)N1CCC(CCc2ccccc2)N2C[C@H](N)C[C@H]2C1=O (stereo not given in full)
12,> 100000 nM,CC(C)C[C@H](C(=O)NCc1ccc(Cl)c(Cl)c1)N1CCC(CCc2ccccc2)N2C[C@H](N(C)C)C[C@H]2C1=O (stereo not given in full)
13,< 1000 nM,N[C@@H]1C[C@H]2C(=O)N([C@H](CCc3nsc(=O)[nH]3)C(=O)NCc3ccc(Cl)c(Cl)c3)CCC(CCc3ccccc3)N2C1 (stereo not given in full)
14,< 1000 nM,N[C@@H]1C[C@H]2C(=O)N([C@H](CCc3nnn[nH]3)C(=O)NCc3ccc(Cl)c(Cl)c3)CCC(CCc3ccccc3)N2C1 (stereo not given in full)
15,in the range around 10000 nM,CC(C)C[C@H](C(=O)NCc1cscn1)N1CCC(CCc2ccccc2)N2C[C@H](N)C[C@H]2C1=O (stereo not given in full)
16,in the range around 10000 nM,CC(C)C[C@H](C(=O)NCc1cncs1)N1CCC(CCc2ccccc2)N2C[C@H](N)C[C@H]2C1=O (stereo not given in full)
17,in the range around 10000 nM,CC(C)C[C@H](C(=O)NCC1CCCCC1)N1CCC(CCc2ccccc2)N2C[C@H](N)C[C@H]2C1=O (stereo not given in full)
18,in the range around 1000 nM,CC(C)C[C@H](C(=O)NCc1ccc(Cl)cc1Cl)N1CCC(CCc2ccccc2)N2C[C@H](N)C[C@H]2C1=O (stereo not given in full)
19,in the range around 1000 nM,CC(C)C[C@H](C(=O)NCc1ccc(Cl)cc1)N1CCC(C[S@@+]([O-])c2ccccc2)N2C[C@H](N)C[C@H]2C1=O (stereo not given in full)
20,in the range around 1000 nM,CC(C)C[C@H](C(=O)NCc1ccc(Cl)c(Cl)c1)N1CCC(COc2ccccc2)N2C[C@H](N)C[C@H]2C1=O (stereo not given in full)
21,in the range around 1000 nM,CC(C)C[C@H](C(=O)NCCc1ccc(Cl)c(Cl)c1)N1CCC(CCc2ccccc2)N2C[C@H](N)C[C@H]2C1=O (stereo not given in full)
22,in the range around 10000 nM,CC(C)C[C@H](C(=O)N[C@H](C)c1ccccc1)N1CCC(CCc2ccccc2)N2C[C@H](N)C[C@H]2C1=O (stereo not given in full)
23,< 1000 nM,CC(C)C[C@H](C(=O)NCc1ccc(Cl)c(Cl)c1)N1CCC(CSc2ccccc2)N2C[C@H](N)C[C@H]2C1=O (stereo not given in full)
24,in the range around 10000 nM,CC(C)C[C@H](C(=O)NCc1cnccn1)N1CCC(CCc2ccccc2)N2C[C@H](N)C[C@H]2C1=O (stereo not given in full)

# Test system: not listed separately
# Assay: Inhibition of human TREX1 exonuclease activity using labeled DNA oligonucleotide as substrate incubated for 30 mins and measured after 45 mins by fluorescence assay
row,IC50,Compound
1,in the range around 1000 nM,CC(C)C[C@H](CNC(=O)c1ccc(Cl)cc1)N1CCC(CCc2ccccc2)N2C[C@H](N)C[C@H]2C1=O (stereo not given in full)
2,< 1000 nM,CC(C)C[C@H](C(=O)NCc1ccc(Cl)c(Cl)c1)N1CCC(CCc2ccc(Cl)cc2)N2C[C@H](N)C[C@H]2C1=O (stereo not given in full)
3,< 1000 nM,NC(=O)CC[C@H](C(=O)NCc1ccc(Cl)c(Cl)c1)N1CCC(CCc2ccccc2)N2C[C@H](N)C[C@H]2C1=O (stereo not given in full)
4,< 1000 nM,CCC[C@H](C(=O)NS(=O)(=O)c1ccc(Cl)c(Cl)c1)N1CCC(CCc2ccccc2)N2C[C@H](N)C[C@H]2C1=O (stereo not given in full)
5,< 1000 nM,CC(C)C[C@H](C(=O)NCc1ccc(F)cc1)N1CCC(CCc2ccccc2)N2C[C@H](N)C[C@H]2C1=O (stereo not given in full)
6,in the range around 1000 nM,CC(C)C[C@H](C(=O)NCc1ccc(Cl)c(Cl)c1)N1CCC(CCc2ccccc2)N(CCN)CC1=O (stereo not given in full)
7,in the range around 10000 nM,CC(C)C[C@H](C(=O)NCc1ccc(Cl)c(Cl)c1)N1CCC(C)N2C[C@H](N)C[C@H]2C1=O (stereo not given in full)
8,in the range around 1000 nM,CC(C)C[C@H](C(=O)NCc1ccc(C#N)cc1)N1CCC(CCc2ccccc2)N2C[C@H](N)C[C@H]2C1=O (stereo not given in full)
9,< 1000 nM,CC(C)C[C@H](C(=O)NS(=O)(=O)c1ccc(Cl)c(Cl)c1)N1CCC(CCc2ccccc2)N2C[C@H](N)C[C@H]2C1=O (stereo not given in full)
10,in the range around 1000 nM,CC(=O)N[C@@H]1C[C@H]2C(=O)N([C@H](CC(C)C)C(=O)NCc3ccc(Cl)c(Cl)c3)CCC(CCc3ccccc3)N2C1 (stereo not given in full)
11,< 1000 nM,CC(C)C[C@H](C(=O)NCc1ccc(C(F)(F)F)cc1)N1CCC(CCc2ccccc2)N2C[C@H](N)C[C@H]2C1=O (stereo not given in full)
12,in the range around 10000 nM,CC(C)C[C@H](C(=O)NCc1ccc(Cl)c(Cl)c1)N1CCC(CCc2ccccc2)N2C[C@H](N(C)C)C[C@H]2C1=O (stereo not given in full)
13,< 1000 nM,N[C@@H]1C[C@H]2C(=O)N([C@H](CCc3nsc(=O)[nH]3)C(=O)NCc3ccc(Cl)c(Cl)c3)CCC(CCc3ccccc3)N2C1 (stereo not given in full)
14,< 1000 nM,N[C@@H]1C[C@H]2C(=O)N([C@H](CCc3nnn[nH]3)C(=O)NCc3ccc(Cl)c(Cl)c3)CCC(CCc3ccccc3)N2C1 (stereo not given in full)
15,in the range around 1000 nM,CC(C)C[C@H](C(=O)NCc1cscn1)N1CCC(CCc2ccccc2)N2C[C@H](N)C[C@H]2C1=O (stereo not given in full)
16,in the range around 1000 nM,CC(C)C[C@H](C(=O)NCc1cncs1)N1CCC(CCc2ccccc2)N2C[C@H](N)C[C@H]2C1=O (stereo not given in full)
17,in the range around 10000 nM,CC(C)C[C@H](C(=O)NCC1CCCCC1)N1CCC(CCc2ccccc2)N2C[C@H](N)C[C@H]2C1=O (stereo not given in full)
18,< 1000 nM,CC(C)C[C@H](C(=O)NCc1ccc(Cl)cc1Cl)N1CCC(CCc2ccccc2)N2C[C@H](N)C[C@H]2C1=O (stereo not given in full)
19,< 1000 nM,CC(C)C[C@H](C(=O)NCc1ccc(Cl)cc1)N1CCC(C[S@@+]([O-])c2ccccc2)N2C[C@H](N)C[C@H]2C1=O (stereo not given in full)
20,< 1000 nM,CC(C)C[C@H](C(=O)NCc1ccc(Cl)c(Cl)c1)N1CCC(COc2ccccc2)N2C[C@H](N)C[C@H]2C1=O (stereo not given in full)
21,< 1000 nM,CC(C)C[C@H](C(=O)NCCc1ccc(Cl)c(Cl)c1)N1CCC(CCc2ccccc2)N2C[C@H](N)C[C@H]2C1=O (stereo not given in full)
22,in the range around 10000 nM,CC(C)C[C@H](C(=O)N[C@H](C)c1ccccc1)N1CCC(CCc2ccccc2)N2C[C@H](N)C[C@H]2C1=O (stereo not given in full)
23,< 1000 nM,CC(C)C[C@H](C(=O)NCc1ccc(Cl)c(Cl)c1)N1CCC(CSc2ccccc2)N2C[C@H](N)C[C@H]2C1=O (stereo not given in full)
24,in the range around 1000 nM,CC(C)C[C@H](C(=O)NCc1cnccn1)N1CCC(CCc2ccccc2)N2C[C@H](N)C[C@H]2C1=O (stereo not given in full)

# Organism: Homo sapiens
# Assay: Binding affinity to recombinant human TREX1 incubated in assay buffer and measured by thermal shift binding assay; further: test concentration or dose not given here
row,ΔTm,Compound
1,> 8 °C,N[C@@H]1C[C@H]2C(=O)N([C@H](CCC(=O)O)C(=O)NCc3ccc(Cl)c(Cl)c3)CCC(CCc3ccccc3)N2C1 (stereo in doubt; form 2)

# Organism: Mus musculus
# Assay: Binding affinity to recombinant mouse TREX1 incubated in PBS and measured by thermal shift binding assay; further: test concentration or dose not given here
row,ΔTm,Compound
1,> 8 °C,N[C@@H]1C[C@H]2C(=O)N([C@H](CCC(=O)O)C(=O)NCc3ccc(Cl)c(Cl)c3)CCC(CCc3ccccc3)N2C1 (stereo in doubt; form 2)
